Counter-ions that a name gives are not always drawn.
Key:
[1] = free base; cited from earlier work
[2] = Storage stability of tablets (Examples 3, 4, 10A, 10B); assay type: physicochemical; conditions: summary in words of Table II
Procedure: In order to compare the storage stability of the tablets of Examples 3 and 4 with similar tablets containing the hydrochloride salt of 2-tert-butylamino-3'-chloropropiophenone, tablets having the following compositions were prepared in an analogous manner to that described in Examples 3 and 4:-
The four sets of tablets (3, 4, 10A and 10B) were tested for stability. Testing was carried out on tablets: • (a) stored at 50°C in closed bottles; and • (b) stored at 37°C in open bottles under a relative humidity of 75%.
The results are summarised in the following Table II in which the data are assay values expressed as percentage of labeled strength of the active salt, and "mo." indicates month: […]

[3] = system: tetrabenazine induced sedation; assay: Antagonism of tetrabenazine induced sedation (modified Vernier method); assay type: in vivo, Mice; conditions: for Percent Antagonism of Tetrabenazine Induced Sedation: CD1 male mice, 35 mg/kg tetrabenazine hydrochloride ip
Procedure: Antagonism of tetrabenazine induced sedation was measured using a modification of the method of Vernier, et al., First Hahnemann Symposium on Psychosomatic Medicine, ed. Nodim and Moyer, pub. Lea and Febiger, Philadelphia, 1962.
Mice, three groups of 12 CD1 males each, were injected intraperitoneally (ip) with a solution of 2-tert-butylamino-3'-chlorogropiophenone hydrochloride (Cpd A) or 2-tert-butylamino-3'-chloropropiophenone maleate (Cpd B) or with saline. Thirty minutes later each of the mice was injected ip with a solution containing 35 mg/kg tetrabenazine hydrochloride. Thirty minutes after the injection of tetrabenazine each mouse was examined for its level of exploratory behavior which was scored on a modification of the arbitrary scale defined by Vernier, et al. The dose of tetrabenazine used was sufficient to cause 90 to 100 percent of the mice to remain motionless even when placed in a new environment. In the test results reported 100 percent would represent total reversal of tetrabenazine effects.
The doses of Cpd B are equivalent to the corresponding doses of Cpd A on a molar basis.

[4] = Stability of salts with conventional pharmaceutical carriers or excipients; assay type: physicochemical; conditions: tableting excipients, particularly magnesium stearate and stearic acid; result in words
Source text: It will be appreciated that, in order for the salts to be used in medical therapy, it is necessary to formulate them into pharmaceutical compositions suitable for administration to the patient. The formulation of such compositions entails the admixture or contacting of the salts with various pharmaceutical carriers or excipients. Examples of solid pharmaceutical compositions which are mentioned in British Specification 1,340,032 are tablets, cachets, capsules and suppositories. Of these various types of composition, tablets and capsules are particularly preferred forms as it is generally desired to administer the active compound by the oral route. […] The formulation of the salts of the free base in capsules also presents problems because gelatin, which is commonly used to make the capsule shell, is hydrophilic and therefore creates a humid environment within the capsule, which has a deleterious effect on the 2-tert-butylamino-3'chloropropiophenone salt present in the capsule. It will therefore be appreciated that considerable difficulty arose in finding a salt of 2-tert-butylamino-3'-chloropropiophenone which has sufficient stability when formulated in pharmaceutical compositions.
A further advantage of the maleate salt is that it is much less corrosive than, for example, the hydrochloride salt which tends to corrode apparatus used in its preparation and formulation. […]

Charles River CD1 mice = assay: 14-day oral (gavage) toxicity in mice; assay type: in vivo; conditions: 260 mg/kg per day for 14 days, gavage in 0.5 percent carboxymethylcellulose, four males and four females
Procedure: 2-Tert-butylamino-3'-chloropropiophenone maleate was administered by gavage in 0.5 percent carboxymethylcellulose to Charles River CD1 mice (four males and four females) at a dose of 260 mg/kg per day for 14 days.

[5] = Comparative bulk storage stability of salts of 2-tert-butylamino-3'-chloropropiophenone; assay type: physicochemical; conditions: bulk salt, result in words
Source text: The propiophenone moiety breaks down into hydroxyketones, a diketone and meta-chlorobenzoic acid. It is of course an important desideratum for : a pharmaceutical product that it should have a reasonably good bulk stability in order to avoid or reduce wastage resulting from decomposition of the active moiety during the period between its synthesis and its use in formulating the final dosage form.
Small amounts of various salts of 2-tert-butylamino-3'-chloropropiophenone were each placed in a clean borosilicate glass vial which was sealed with a Teflon-faced rubber closure. The samples were then placed in an oven maintained at 70°C (except for the formate which was stored at 75°C) and visual comparisons were made over a period of 1-3 days. The observations are recorded in the following Table I: […]

In the case of `CC(NC(C)(C)C)C(=O)c1cccc(Cl)c1` (stereo not drawn) [2-tert-butylamino-3'-chloropropiophenone], the pKa [1] is given as 8.5-9.

For `CC(NC(C)(C)C)C(=O)c1cccc(F)c1` (stereo not drawn) [3'-fluoro analogue], the pKa [1] is given as 8.5-9.

For `CC(NC(C)(C)C)C(=O)c1cccc(Cl)c1` (stereo not drawn) [Cpd A, 2-tert-butylamino-3'-chlorogropiophenone hydrochloride], the “stability in the formulated tablets” value [2] was “limited stability”, the “Percent Antagonism of Tetrabenazine Induced Sedation” value (shortened to “Percent Antagonism”) ([3]; dose 12.5 mg/kg (ip)) was 17.5% and the “Percent Antagonism” value ([3]; dose 25 mg/kg (ip)) was 50%. For the same compound, the “Percent Antagonism” value ([3]; dose 50 mg/kg (ip)) was 62.5% and the “stability in association with conventional pharmaceutical carriers and excipients” value [4] was “limited stability”.

With `CC(NC(C)(C)C)C(=O)c1cccc(Cl)c1.O=C(O)/C=C\C(=O)O` (stereo not drawn) [Cpd B, 2-tert-butylamino-3'-chloropropiophenone maleate] the “stability in the formulated tablets” value [2] was “relatively stable”, the “Percent Antagonism” value ([3]; dose 16.1 mg/kg (ip)) was 27.5% and the “Percent Antagonism” value ([3]; dose 32.2 mg/kg (ip)) was 62.5%. For the same compound, the “Percent Antagonism” value ([3]; dose 64.4 mg/kg (ip)) was 60%, the “antidepressant activity in the tetrabenazine-induced sedation test” value ([3]; rodents, result in words) was “good antidepressant activity” and the survival (Charles River CD1 mice) was “All of the mice survived”. The “stability in association with conventional pharmaceutical carriers and excipients” value [4] was “advantageous stability characteristics”.

For `CC(NC(C)(C)C)C(=O)c1cccc(Cl)c1` (stereo not drawn) [napthalenesulphonate monohydrate], the stability upon storage [5] was “unstable upon storage”.
